Reference: ChEMBL document CHEMBL1143113, “Design and synthesis of 4-[(s-triazin-2-ylamino)methyl]-N-(2-aminophenyl)-benzamides and their analogues as a novel class of histone deacetylase inhibitors” (Bioorg Med Chem Lett, 2008)
The source made the active and inactive calls. The calls are words filed in the database; no cut-off is given here.

How the values were obtained:
HMEC = assay: Cytotoxicity against human HMEC cells by MTT assay; assay type: cell-based
Histone deacetylase 1 [1] = molecular target: T1, Histone deacetylase 1 (Homo sapiens, UniProt Q13547); assay: Inhibition of human recombinant HDAC1
[2] = Induction of histone H4 acetylation in human […]; assay type: functional, cell-based
HCT-116 [3] = assay: Cytotoxicity against human HCT116 cells by MTT assay; assay type: functional, cell-based
HCT-116 [4] = assay: Antitumor activity in human HCT116 tumor bearing mouse at 40 mg/kg/day, ip after 2 weeks; assay type: functional; details: HCT-116, ip, 336 h, route intraperitoneal
[5] = molecular target: T2, Protein deacetylase HDAC6 (Homo sapiens) (UniProt Q9UBN7); assay: Activity against HDAC6
T2 sequence (whole entry): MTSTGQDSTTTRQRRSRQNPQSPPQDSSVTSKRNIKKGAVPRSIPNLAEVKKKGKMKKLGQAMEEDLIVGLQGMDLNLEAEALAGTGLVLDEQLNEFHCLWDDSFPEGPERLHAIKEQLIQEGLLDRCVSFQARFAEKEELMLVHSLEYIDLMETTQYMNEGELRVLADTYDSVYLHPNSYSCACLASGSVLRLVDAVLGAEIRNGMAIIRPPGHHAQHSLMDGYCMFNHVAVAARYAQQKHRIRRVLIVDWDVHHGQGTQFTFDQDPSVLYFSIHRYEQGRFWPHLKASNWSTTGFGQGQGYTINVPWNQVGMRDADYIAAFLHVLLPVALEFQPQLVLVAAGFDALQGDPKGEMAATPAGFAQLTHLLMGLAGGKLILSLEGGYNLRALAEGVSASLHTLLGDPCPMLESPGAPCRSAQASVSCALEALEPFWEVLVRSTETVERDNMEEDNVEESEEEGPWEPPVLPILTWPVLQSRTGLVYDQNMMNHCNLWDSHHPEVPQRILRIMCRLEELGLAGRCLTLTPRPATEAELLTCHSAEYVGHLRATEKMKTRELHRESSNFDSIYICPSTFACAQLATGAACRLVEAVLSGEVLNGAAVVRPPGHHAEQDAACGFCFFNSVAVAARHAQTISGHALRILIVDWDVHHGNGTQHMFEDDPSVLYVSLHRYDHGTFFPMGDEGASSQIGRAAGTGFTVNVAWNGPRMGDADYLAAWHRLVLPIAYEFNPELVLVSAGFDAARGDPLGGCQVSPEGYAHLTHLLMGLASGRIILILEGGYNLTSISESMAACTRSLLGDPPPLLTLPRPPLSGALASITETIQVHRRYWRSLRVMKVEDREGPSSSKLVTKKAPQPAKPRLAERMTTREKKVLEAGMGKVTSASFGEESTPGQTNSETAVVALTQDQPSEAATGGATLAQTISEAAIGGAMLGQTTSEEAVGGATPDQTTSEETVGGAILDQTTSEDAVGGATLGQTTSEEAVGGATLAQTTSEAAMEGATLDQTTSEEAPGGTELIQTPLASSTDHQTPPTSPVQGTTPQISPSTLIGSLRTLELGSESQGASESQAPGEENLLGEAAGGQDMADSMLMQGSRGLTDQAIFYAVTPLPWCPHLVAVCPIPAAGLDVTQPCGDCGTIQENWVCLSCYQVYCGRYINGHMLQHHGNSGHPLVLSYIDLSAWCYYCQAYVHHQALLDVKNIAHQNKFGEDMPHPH

[6] = molecular target: Histone deacetylase 4 (Homo sapiens) (UniProt P56524); assay: Activity against HDAC4
[7] = molecular target: Histone deacetylase 3 (Homo sapiens) (UniProt O15379); assay: Activity against HDAC3
[8] = molecular target: Histone deacetylase 5 (Homo sapiens) (UniProt Q9UQL6); assay: Activity against HDAC5
[9] = molecular target: T3, Histone deacetylase 7 (Homo sapiens) (UniProt Q8WUI4); assay: Activity against HDAC7
T3 sequence (whole entry): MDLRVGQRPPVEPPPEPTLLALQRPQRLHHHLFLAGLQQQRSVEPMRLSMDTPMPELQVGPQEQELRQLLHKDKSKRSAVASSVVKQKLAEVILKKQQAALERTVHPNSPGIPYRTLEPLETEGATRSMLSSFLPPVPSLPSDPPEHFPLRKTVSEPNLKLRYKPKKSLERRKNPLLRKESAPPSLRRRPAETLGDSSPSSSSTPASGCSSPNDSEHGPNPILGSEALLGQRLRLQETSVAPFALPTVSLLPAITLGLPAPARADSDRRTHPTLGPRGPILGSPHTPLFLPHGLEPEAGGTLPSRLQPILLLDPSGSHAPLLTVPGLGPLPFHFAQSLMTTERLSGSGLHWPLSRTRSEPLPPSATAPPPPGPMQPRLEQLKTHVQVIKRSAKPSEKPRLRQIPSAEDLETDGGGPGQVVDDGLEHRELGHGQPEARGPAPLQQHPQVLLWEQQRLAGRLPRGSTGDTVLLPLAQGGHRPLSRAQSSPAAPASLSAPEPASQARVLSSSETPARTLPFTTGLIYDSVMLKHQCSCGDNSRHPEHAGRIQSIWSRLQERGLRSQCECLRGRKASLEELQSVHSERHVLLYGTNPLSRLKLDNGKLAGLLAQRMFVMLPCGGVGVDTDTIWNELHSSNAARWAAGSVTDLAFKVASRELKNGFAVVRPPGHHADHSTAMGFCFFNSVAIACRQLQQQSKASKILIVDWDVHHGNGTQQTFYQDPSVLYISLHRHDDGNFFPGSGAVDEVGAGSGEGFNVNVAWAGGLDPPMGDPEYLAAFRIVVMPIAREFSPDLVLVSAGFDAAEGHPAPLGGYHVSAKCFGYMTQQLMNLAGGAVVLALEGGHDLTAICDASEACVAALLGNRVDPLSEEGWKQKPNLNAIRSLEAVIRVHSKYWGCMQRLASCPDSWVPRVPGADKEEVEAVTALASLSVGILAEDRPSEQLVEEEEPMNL

[10] = molecular target: Histone deacetylase 2 (Homo sapiens) (UniProt Q92769); assay: Activity against HDAC2
Histone deacetylase 1 [11] = molecular target: T1, Histone deacetylase 1; assay: Activity against HDAC1
HCT-116 [12] = assay: Antitumor activity in human HCT116 tumor bearing mouse at 20 mg/kg/day, ip after 2 weeks; assay type: functional; details: HCT-116, ip, 336 h, route intraperitoneal

Histone deacetylase 3 (Homo sapiens), sequence (O15379 whole entry): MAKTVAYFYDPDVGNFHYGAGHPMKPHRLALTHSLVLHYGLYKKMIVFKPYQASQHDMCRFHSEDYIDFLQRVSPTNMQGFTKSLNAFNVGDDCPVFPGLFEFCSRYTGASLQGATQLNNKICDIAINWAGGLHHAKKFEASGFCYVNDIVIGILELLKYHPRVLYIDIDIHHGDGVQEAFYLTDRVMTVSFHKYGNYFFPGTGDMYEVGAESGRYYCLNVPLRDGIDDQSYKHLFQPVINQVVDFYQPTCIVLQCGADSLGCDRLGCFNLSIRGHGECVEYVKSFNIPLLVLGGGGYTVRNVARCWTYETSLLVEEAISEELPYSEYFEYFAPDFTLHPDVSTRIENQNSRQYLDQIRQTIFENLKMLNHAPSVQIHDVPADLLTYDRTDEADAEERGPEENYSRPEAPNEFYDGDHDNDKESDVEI
Histone deacetylase 5 (Homo sapiens), sequence (Q9UQL6 whole entry): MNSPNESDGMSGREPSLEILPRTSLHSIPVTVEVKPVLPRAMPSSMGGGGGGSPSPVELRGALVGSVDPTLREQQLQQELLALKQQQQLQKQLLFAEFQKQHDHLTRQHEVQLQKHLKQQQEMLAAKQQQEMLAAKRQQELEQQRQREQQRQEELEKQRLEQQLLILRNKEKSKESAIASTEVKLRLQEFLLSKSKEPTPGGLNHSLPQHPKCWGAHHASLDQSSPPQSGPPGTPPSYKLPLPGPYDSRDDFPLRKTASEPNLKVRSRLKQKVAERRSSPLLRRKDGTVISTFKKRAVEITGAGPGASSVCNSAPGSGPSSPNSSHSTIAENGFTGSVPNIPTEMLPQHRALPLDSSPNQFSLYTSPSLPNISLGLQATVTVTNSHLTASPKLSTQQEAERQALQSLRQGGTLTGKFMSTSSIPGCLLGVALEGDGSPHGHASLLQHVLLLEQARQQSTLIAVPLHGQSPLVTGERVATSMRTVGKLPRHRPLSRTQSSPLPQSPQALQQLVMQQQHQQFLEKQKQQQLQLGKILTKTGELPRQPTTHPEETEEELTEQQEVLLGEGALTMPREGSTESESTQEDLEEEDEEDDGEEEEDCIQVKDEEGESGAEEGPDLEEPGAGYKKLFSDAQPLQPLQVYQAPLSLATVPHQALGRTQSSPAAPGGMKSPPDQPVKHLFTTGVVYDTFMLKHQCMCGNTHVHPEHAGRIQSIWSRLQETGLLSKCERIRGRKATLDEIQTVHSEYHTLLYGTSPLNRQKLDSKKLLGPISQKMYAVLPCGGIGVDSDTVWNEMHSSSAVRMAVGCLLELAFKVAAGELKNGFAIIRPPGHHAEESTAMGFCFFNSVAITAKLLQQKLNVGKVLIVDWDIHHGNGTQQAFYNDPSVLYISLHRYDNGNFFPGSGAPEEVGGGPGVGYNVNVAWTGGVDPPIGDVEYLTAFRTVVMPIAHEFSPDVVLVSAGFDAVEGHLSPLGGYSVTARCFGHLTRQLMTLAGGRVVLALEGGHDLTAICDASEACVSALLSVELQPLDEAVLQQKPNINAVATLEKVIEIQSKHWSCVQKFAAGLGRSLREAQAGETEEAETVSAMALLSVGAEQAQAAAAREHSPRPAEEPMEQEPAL
Histone deacetylase 4 (Homo sapiens), sequence (P56524 whole entry): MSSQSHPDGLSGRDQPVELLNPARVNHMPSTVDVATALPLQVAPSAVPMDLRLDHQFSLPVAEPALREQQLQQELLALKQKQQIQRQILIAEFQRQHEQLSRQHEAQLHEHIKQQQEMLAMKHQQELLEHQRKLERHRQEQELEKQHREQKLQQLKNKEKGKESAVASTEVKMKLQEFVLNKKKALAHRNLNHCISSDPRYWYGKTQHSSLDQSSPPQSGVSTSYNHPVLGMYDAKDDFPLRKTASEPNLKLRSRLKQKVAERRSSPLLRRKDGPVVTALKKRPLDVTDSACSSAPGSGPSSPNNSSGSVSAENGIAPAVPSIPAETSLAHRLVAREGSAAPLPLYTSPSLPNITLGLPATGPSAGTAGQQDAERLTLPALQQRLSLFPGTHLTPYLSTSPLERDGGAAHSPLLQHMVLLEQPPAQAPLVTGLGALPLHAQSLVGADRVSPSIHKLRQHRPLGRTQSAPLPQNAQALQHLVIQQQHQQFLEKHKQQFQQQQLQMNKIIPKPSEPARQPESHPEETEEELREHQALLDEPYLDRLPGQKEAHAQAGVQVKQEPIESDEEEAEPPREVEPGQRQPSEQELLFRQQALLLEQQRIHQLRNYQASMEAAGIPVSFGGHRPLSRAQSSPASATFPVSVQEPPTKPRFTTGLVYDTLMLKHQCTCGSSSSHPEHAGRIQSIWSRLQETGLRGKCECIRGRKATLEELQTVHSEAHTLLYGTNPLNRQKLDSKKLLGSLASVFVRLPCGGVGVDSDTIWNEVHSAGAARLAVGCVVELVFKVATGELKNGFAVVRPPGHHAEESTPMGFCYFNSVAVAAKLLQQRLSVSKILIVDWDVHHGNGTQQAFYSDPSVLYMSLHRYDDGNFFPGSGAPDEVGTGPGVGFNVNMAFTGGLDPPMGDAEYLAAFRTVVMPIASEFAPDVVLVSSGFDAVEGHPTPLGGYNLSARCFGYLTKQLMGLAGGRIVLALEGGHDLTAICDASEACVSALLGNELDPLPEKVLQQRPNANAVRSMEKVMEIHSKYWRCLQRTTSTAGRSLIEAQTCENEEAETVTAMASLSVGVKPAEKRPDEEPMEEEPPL
T1 sequence (Q13547 whole entry): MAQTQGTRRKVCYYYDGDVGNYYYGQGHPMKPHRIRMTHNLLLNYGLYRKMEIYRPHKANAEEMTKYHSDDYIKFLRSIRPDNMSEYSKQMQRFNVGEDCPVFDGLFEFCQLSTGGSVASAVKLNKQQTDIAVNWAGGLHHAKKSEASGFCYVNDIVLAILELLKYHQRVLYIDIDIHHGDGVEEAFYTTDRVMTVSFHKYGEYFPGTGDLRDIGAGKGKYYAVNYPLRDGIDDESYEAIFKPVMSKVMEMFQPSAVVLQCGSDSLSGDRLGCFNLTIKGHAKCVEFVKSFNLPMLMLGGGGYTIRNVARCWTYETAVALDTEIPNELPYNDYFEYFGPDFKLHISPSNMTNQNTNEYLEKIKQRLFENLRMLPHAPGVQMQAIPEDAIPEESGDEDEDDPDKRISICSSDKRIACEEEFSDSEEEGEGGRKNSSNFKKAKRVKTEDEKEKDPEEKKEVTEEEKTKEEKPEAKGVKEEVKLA
Histone deacetylase 2 (Homo sapiens), sequence (Q92769 whole entry): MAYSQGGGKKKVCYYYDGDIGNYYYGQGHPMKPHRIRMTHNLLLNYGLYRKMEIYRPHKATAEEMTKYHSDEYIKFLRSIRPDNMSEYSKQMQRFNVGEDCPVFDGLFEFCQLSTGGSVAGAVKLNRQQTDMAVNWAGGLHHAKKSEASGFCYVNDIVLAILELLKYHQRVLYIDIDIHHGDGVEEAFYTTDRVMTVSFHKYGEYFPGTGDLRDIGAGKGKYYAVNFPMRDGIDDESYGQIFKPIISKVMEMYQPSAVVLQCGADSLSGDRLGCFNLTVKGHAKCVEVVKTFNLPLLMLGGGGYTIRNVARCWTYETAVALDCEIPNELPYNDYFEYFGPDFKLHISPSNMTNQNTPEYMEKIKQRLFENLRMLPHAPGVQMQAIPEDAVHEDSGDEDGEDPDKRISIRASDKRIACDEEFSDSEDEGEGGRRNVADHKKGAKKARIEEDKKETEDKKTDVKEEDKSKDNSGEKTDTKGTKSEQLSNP

Compound | IC50 (Histone deacetylase 1 [1]) [nM] | EC50 [2] [nM] | IC50 (HMEC) [nM] | IC50 (HCT-116 [3]) [nM] | other results
Nc1ccccc1NC(=O)c1ccc(CNc2ncccn2)cc1 | 700 |  |  | 2000 | 
Nc1nc(NCc2ccc(C(=O)Nc3ccccc3N)cc2)nc(N2CCOCC2)n1 | 200 | 5000 | > 40000 | 800 | inhibition in vivo at 40 mg/kg/day (HCT-116 [4]): 50%; Activity [5]: inactive; Activity [6]: inactive; Activity [7]: Active; Activity [8]: inactive; Activity [9]: inactive; Activity [10]: Active; Activity (Histone deacetylase 1 [11]): Active
Nc1nc(NCc2ccc(C(=O)Nc3ccccc3N)cc2)nc(NC2Cc3ccccc3C2)n1 | 200 | 1000 | 8000 | 600 | Activity [5]: inactive; Activity [6]: inactive; Activity [7]: Active; Activity [8]: inactive; Activity [9]: inactive; Activity [10]: Active; Activity (Histone deacetylase 1 [11]): Active
Cc1cc(C)nc(NCc2ccc(C(=O)Nc3ccccc3N)cc2)n1 | 300 |  |  | 1000 | 
Cc1ccc(C#N)c(OCc2ccc(C(=O)Nc3ccccc3N)cc2)n1 | 300 |  |  | 500 | 
Nc1nc(NCc2ccc(C(=O)Nc3ccccc3N)cc2)nc(NC2CCCC2)n1 | 200 | 800 | 11000 | 700 | inhibition in vivo at 40 mg/kg/day (HCT-116 [4]): 50%; Activity [5]: inactive; Activity [6]: inactive; Activity [7]: Active; Activity [8]: inactive; Activity [9]: inactive; Activity [10]: Active; Activity (Histone deacetylase 1 [11]): Active
Nc1ccccc1NC(=O)c1ccc(CSc2ccccn2)cc1 | 300 |  |  | 1000 | 
Nc1nc(NCCc2ccccc2)nc(NCc2ccc(C(=O)Nc3ccccc3N)cc2)n1 | 100 | 1000 | 21000 | 300 | 
Nc1nc(NCc2ccc(C(=O)Nc3ccccc3N)cc2)c2nc[nH]c2n1 | 200 |  |  | 10000 | 
COc1cc(NCc2ccc(C(=O)Nc3ccccc3N)cc2)ncn1 | 200 |  |  | 1000 | 
CCCCn1cnc2c(NCc3ccc(C(=O)Nc4ccccc4N)cc3)nc(N)nc21 | 300 |  |  | 2000 | 

Now from value to compound, other results behind:

IC50 (Histone deacetylase 1 [1]) [nM] | EC50 [2] [nM] | Compound | IC50 (HMEC) [nM] | IC50 (HCT-116 [3]) [nM] | other results
30 | 1000 | Nc1ccccc1NC(=O)c1ccc(CNc2nc(NC3CC3)nc(NC3Cc4ccccc4C3)n2)cc1 | 18000 | 1000 | 
100 |  | COc1cc(OC)nc(NCc2ccc(C(=O)Nc3ccccc3N)cc2)n1 |  | 600 | 
100 |  | Nc1ccccc1NC(=O)c1ccc(CNc2cccc(F)n2)cc1 |  | 1000 | 
100 |  | COc1cccc(NCc2ccc(C(=O)Nc3ccccc3N)cc2)n1 |  | 800 | 
70 | 1000 | Nc1ccccc1NC(=O)c1ccc(CNc2nc(NCCN3CCOCC3)nc(NC3Cc4ccccc4C3)n2)cc1 | 16000 | 600 | Activity [5]: inactive; Activity [6]: inactive; inhibition in vivo at 20 mg/kg/day (HCT-116 [12]): 49%; Activity [7]: Active; Activity [8]: inactive; Activity [9]: inactive; Activity [10]: Active; Activity (Histone deacetylase 1 [11]): Active
50 |  | COc1ccc(-c2ccnc(NCc3ccc(C(=O)Nc4ccccc4N)cc3)n2)cc1OC |  | 100 | 
100 |  | COc1ccc(-c2cc(Cl)nc(NCc3ccc(C(=O)Nc4ccccc4N)cc3)n2)cc1OC |  | 400 | 
40 | 1000 | Nc1nc(NCc2ccc(C(=O)Nc3ccccc3N)cc2)nc(N2Cc3ccccc3C2)n1 | > 50000 | 500 | 
100 |  | COc1ccc(NCc2ccc(C(=O)Nc3ccccc3N)cc2)cn1 |  | 700 | 
100 | 1000 | Nc1nc(NCc2ccc(C(=O)Nc3ccccc3N)cc2)nc(N2CCc3ccccc32)n1 | 10000 | 800 | 
50 |  | CCCCn1cnc2c(NCc3ccc(C(=O)Nc4ccccc4N)cc3)nc(Cl)nc21 |  | 100 | 
80 | 1000 | Nc1ccccc1NC(=O)c1ccc(CNc2nc(NC3Cc4ccccc4C3)nc(N3CCOCC3)n2)cc1 | > 50000 | 2000 | 
